16 molecules from patent US11999727B2 (Tango Therapeutics, Inc., priority 2020, dated 2024) can be followed below.

For assay [1], the target named is T1, PRMT5 (Homo sapiens, UniProt O14744).
T1 construct: purchased Viva (custom protein)
The assay can be described thus: PRMT5 biochemical IC50 assay with SAM as cofactor. To be noted: PRMT5, SAM as cofactor; read-out: SAM IC50.

Assay [2] addresses T1, PRMT5. As to the kind of experiment: PRMT5 biochemical IC50 assay with MTA as cofactor. To be noted: PRMT5, MTA as cofactor; read-out: MTA IC50.
Assay [3] deals with HAP1 MTAP-intact cell line. As to the kind of experiment: SDMA in-cell western assay, HAP1 MTAP-intact. The assay is classed as cell-based. To be noted: Homo sapiens, HAP1, SDMA in-cell western, HAP1 MTAP-intact; read-out: MTAP HAP1 intact IC50. Put shortly: (§1)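 IC50 values come from SDMA signal quantified by in-cell western in two HAP1 lines, one with native MTAP levels and one lacking MTAP.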

For assay [4], the system named is HAP1 MTAP-deleted cell line. The assay can be described thus: Viability assay, MTAP-deleted cell line. Type of assay: cell-based. As to conditions: Homo sapiens, read-out: HAP1 MTAP deleted viability. The text has this:
Table 1 additionally indicates IC50 values in a viability assay for the MTAP-deleted cell line (column 10), indicating the effect of treatment with compound on cell survival.

Assay [5] concerns the target T1, PRMT5. As to the kind of experiment: PRMT5 biochemical IC50 assay with no cofactor. As to conditions: PRMT5, no cofactor. The text has this: Table 1 indicates IC50 values (μM) against PRMT5 for exemplary compounds in the presence of SAM as cofactor, with no cofactor, and with MTA as cofactor, respectively (columns 4-6). […] Ki values can be calculated from the IC50 values as described in the Examples section. As detailed in the Examples section, for the assay performed in the presence of SAM, IC50=Ki×1.5 (Ki=IC50/1.5).

For assay [6], the system named is HAP1 MTAP-deleted cell line. As to the kind of experiment: SDMA in-cell western assay, HAP1 MTAP-deleted. Type of assay: cell-based. As to conditions: for IC50: Homo sapiens, HAP1, SDMA in-cell western, HAP1 MTAP-deleted; for MTAP intact/deleted ratio: IC50 ratio HAP1 MTAP-intact / HAP1 MTAP-deleted, SDMA in-cell western. Put shortly:
as §1

The mark [7] stands for this setting: HAP1, viability IC50, MTAP-deleted cell line.
Where [8] appears, read: read-out: HAP 1 MTAP deleted IC50.
Setting [9] is: HAP1, viability assay, HAP1 MTAP-deleted.
The mark [10] stands for this setting: read-out: HAP1 MTAP deleted IC50.
The mark [11] stands for this setting: read-out: No Cofactor/ rel IC50.
The mark [12] stands for this setting: HAP1, viability assay, MTAP-deleted cell line.

Molecules are shown by their SMILES.

T1 sequence (O14744 whole entry): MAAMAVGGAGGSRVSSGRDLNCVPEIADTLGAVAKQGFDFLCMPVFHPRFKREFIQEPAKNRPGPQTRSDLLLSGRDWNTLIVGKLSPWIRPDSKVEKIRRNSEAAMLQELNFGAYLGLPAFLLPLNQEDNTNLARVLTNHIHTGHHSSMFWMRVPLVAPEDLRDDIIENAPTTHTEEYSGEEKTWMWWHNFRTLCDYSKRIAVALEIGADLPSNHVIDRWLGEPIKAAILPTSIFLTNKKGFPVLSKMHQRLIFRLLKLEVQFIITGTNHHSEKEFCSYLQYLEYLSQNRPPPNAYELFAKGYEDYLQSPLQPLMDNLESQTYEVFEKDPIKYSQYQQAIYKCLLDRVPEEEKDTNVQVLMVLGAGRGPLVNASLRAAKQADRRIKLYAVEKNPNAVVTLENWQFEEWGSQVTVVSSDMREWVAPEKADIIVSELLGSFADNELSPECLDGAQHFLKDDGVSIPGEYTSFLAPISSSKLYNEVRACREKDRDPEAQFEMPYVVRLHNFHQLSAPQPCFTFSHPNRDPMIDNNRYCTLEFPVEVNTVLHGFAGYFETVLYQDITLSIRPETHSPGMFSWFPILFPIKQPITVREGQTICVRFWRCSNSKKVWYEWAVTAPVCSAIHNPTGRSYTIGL
T1 sequence (Q9BQA1 whole entry partner): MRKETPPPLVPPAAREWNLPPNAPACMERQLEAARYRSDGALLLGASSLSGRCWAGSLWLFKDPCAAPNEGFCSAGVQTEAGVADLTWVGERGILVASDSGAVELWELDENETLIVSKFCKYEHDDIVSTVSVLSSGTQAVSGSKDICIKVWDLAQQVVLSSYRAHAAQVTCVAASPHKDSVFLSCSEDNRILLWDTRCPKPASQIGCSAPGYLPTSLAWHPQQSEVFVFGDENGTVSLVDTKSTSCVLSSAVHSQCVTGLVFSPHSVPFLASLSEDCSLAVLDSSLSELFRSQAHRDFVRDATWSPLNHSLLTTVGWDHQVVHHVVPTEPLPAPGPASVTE

As to `C[C@@H]1CC[C@@H](c2ccc(S(N)(=O)=O)cc2)N(C(=O)C(=O)Nc2cncc(C(N)=O)c2)C1` (racemic) [Compound 651, rac 5-[[2-[(2S,5R)-5-methyl-2-(4-sulfamoylphenyl)-1-piperidyl]-2-oxo-acetyl]amino]pyridine-3-carboxamide], the IC50 in assay [1] was 50 to 500 nM; in assay [2], 50 to 500 nM; in assay [3], above 1000 nM; in assay [4] (setting [7]), above 10000 nM; in assay [5] (read-out: No Cofactor/rel IC50), 50 to 500 nM; in assay [6] (setting [8]), above 1000 nM. Moreover, the MTAP intact/deleted ratio result in assay [6] is on record as “C (an IC50 ratio of less than 3 fold)”.
For the molecule `Cc1cc(NC(=O)C(=O)N2C[C@@H](C)CC[C@@H]2c2ccc3[nH]c(=O)ccc3c2)cnc1N` (single isomer, unassigned) [Compound 762], the IC50 was below 50 nM in assay [1]; below 50 nM in assay [2]; below 100 nM in assay [3]; below 1000 nM in assay [4] (setting [9]); below 50 nM in assay [5] (read-out: No Cofactor/rel IC50); below 100 nM in assay [6] (setting [10]). The MTAP intact/deleted ratio result in assay [6] is reported as “B (an IC50 ratio greater than or equal to 3 fold but lower than 10 fold)”.
With `CCc1cc(NC(=O)C(=O)N2C[C@@H](C)CC[C@@H]2c2ccc(F)cc2)cnc1N` (racemic) [Compound 710, N-(6-amino-5-ethylpyridin-3-yl)-2-(2-(4-fluorophenyl)-5-methylpiperidin-1-yl)-2-oxoacetamide], the IC50 was 50 to 500 nM in assay [1]; below 50 nM in assay [2]; above 1000 nM in assay [3]; below 1000 nM in assay [4] (setting [9]); below 50 nM in assay [5] (read-out: No Cofactor/rel IC50); below 100 nM in assay [6] (setting [10]). For the same molecule, in assay [6], the MTAP intact/deleted ratio result is “A (an IC50 ratio greater than or equal to 10 fold)”.
In the case of `CCc1cc(NC(=O)C(=O)N2C[C@@H](C)CC[C@@H]2c2ccc3sc(C45CC(C4)N(C)C5)nc3c2)cnc1N` [Compound 1372], the IC50 in assay [1] was below 50 nM; in assay [2] it was below 50 nM; in assay [3] it was below 100 nM; in assay [4] (HAP1, viability, HAP1 MTAP-deleted cell line) it was below 1000 nM; in assay [5] (setting [11]), below 50 nM; in assay [6] (setting [8]) it was below 100 nM. In assay [6], the “MTAP intact/deleted ratio” value was “A (an IC50 ratio greater than or equal to 10 fold)”.
`C[C@@H]1CC[C@@H](c2ccc3c(c2)C[C@@H](C)O3)N(C(=O)C(=O)Nc2cncc(C(N)=O)c2)C1` (single isomer, unassigned) [Compound 329]: the IC50 in assay [1] was 50 to 500 nM; in assay [2], below 50 nM; in assay [3] it was above 1000 nM; in assay [4] (setting [12]), 1000 to 10000 nM; in assay [5] (read-out: No Cofactor/rel IC50), 50 to 500 nM; in assay [6] (setting [10]), below 100 nM. Moreover, the MTAP intact/deleted ratio entry in assay [6] is “A (an IC50 ratio greater than or equal to 10 fold)”.
For `Cc1cc(NC(=O)C(=O)N2CCCCC2c2cccc3scnc23)cnc1N` (stereo not shown) [Compound 129, N-(6-Amino-5-methyl-3-pyridyl)-2-[2-(1,3-benzothiazol-4-yl)-1-piperidyl]-2-oxo-acetamide], the IC50 in assay [1] was 50 to 500 nM; in assay [2] it was 50 to 500 nM; in assay [3] it was above 1000 nM; in assay [4] (setting [12]) it was above 10000 nM; in assay [5] (setting [11]), above 500 nM; in assay [6] (setting [8]), above 1000 nM. Also, the “MTAP intact/deleted ratio” value in assay [6] is given as “B (an IC50 ratio greater than or equal to 3 fold but lower than 10 fold)”.
In the case of `C[C@H]1CC[C@H](c2ccc3[nH]ncc3n2)N(C(=O)C(=O)Nc2cncc(C(N)=O)c2)C1` (single isomer, unassigned) [Compound 778], the IC50 in assay [1] is 50 to 500 nM; in assay [2], below 50 nM; in assay [3], above 1000 nM; in assay [4] (setting [9]) it was 1000 to 10000 nM; in assay [5] (read-out: No Cofactor/rel IC50), below 50 nM; in assay [6] (setting [10]), below 100 nM. Also, the MTAP intact/deleted ratio result in assay [6] is “A (an IC50 ratio greater than or equal to 10 fold)”.
For the molecule `CC(=O)Nc1ccc([C@@H]2CC[C@@H](C)CN2C(=O)C(=O)Nc2cnc(N)c(C)c2)cc1` (single isomer, unassigned) [Compound 527], the IC50 is 50 to 500 nM in assay [1]; below 50 nM in assay [2]; 100 to 1000 nM in assay [3]; below 1000 nM in assay [4] (setting [12]); below 50 nM in assay [5] (read-out: No Cofactor/rel IC50); below 100 nM in assay [6] (setting [10]). Further, the MTAP intact/deleted ratio entry in assay [6] is recorded as “A (an IC50 ratio greater than or equal to 10 fold)”.
In the case of `CNc1ccc([C@@H]2CCC[C@H](C)N2C(=O)C(=O)Nc2cncc(C(N)=O)c2)cn1` (racemic) [Compound 561, 5-[[2-[(2S,6S)-2-methyl-6-[6-(methylamino)-3-pyridyl]-1-piperidyl]-2-oxo-acetyl]amino]pyridine-3-carboxamide], the IC50 is 50 to 500 nM in assay [1]; 50 to 500 nM in assay [2]; above 1000 nM in assay [3]; above 10000 nM in assay [4] (setting [7]); 50 to 500 nM in assay [5] (read-out: No Cofactor/rel IC50); 100 to 1000 nM in assay [6] (setting [8]). In addition, the MTAP intact/deleted ratio entry in assay [6] is reported as “A (an IC50 ratio greater than or equal to 10 fold)”.
In the case of `Cc1cc(NC(=O)C(=O)N2CC[C@H](C#N)C[C@@H]2c2ccccc2)cnc1N` (single isomer, unassigned) [Compound 380], the IC50 was above 500 nM in assay [1]; above 500 nM in assay [2]; above 1000 nM in assay [3]; above 10000 nM in assay [4] (setting [12]); above 500 nM in assay [5] (read-out: No Cofactor/rel IC50); above 1000 nM in assay [6] (setting [10]). For the same molecule, the MTAP intact/deleted ratio result in assay [6] is “C (an IC50 ratio of less than 3 fold)”.
Take `CC(=O)Oc1ccc([C@@H]2CC[C@@H](C)CN2C(=O)C(=O)Nc2cncc(C(N)=O)c2)cc1` (single isomer, unassigned) [Compound 599, 4-(1-(2-((5-carbamoylpyridin-3-yl)amino)-2-oxoacetyl)-5-methylpiperidin-2-yl)phenyl acetate]: the IC50 was above 500 nM in assay [1]; above 500 nM in assay [2]; above 1000 nM in assay [3]; above 10000 nM in assay [4] (setting [7]); above 500 nM in assay [5] (read-out: No Cofactor/rel IC50); above 1000 nM in assay [6] (setting [8]). Further, the MTAP intact/deleted ratio result in assay [6] is “B (an IC50 ratio greater than or equal to 3 fold but lower than 10 fold)”.
`Cc1cncc(NC(=O)C(=O)N2C[C@H](C)CC[C@H]2c2ccc(N)cc2)c1` (single isomer, unassigned) [Compound 67]: the IC50 in assay [1] is 50 to 500 nM; in assay [2], 50 to 500 nM; in assay [3] it was above 1000 nM; in assay [4] (setting [12]), above 10000 nM; in assay [5] (setting [11]) it was 50 to 500 nM; in assay [6] (setting [8]), above 1000 nM. The “MTAP intact/deleted ratio” value in assay [6] was “B (an IC50 ratio greater than or equal to 3 fold but lower than 10 fold)”.
For the molecule `Cc1cc(NC(=O)C(=O)N2C[C@H](C)CC[C@H]2c2ccc3c(c2)CCCN3)cnc1N` (single isomer, unassigned) [Compound 504], the IC50 was 50 to 500 nM in assay [1]; below 50 nM in assay [2]; 100 to 1000 nM in assay [3]; below 1000 nM in assay [4] (setting [12]); below 50 nM in assay [5] (read-out: No Cofactor/rel IC50); below 100 nM in assay [6] (setting [10]). In addition, the MTAP intact/deleted ratio entry in assay [6] was “A (an IC50 ratio greater than or equal to 10 fold)”.
With `CC1CCC(C2CCCC2)CN1C(=O)C(=O)Nc1cncc(C(N)=O)c1` (racemic) [Compound 143, 5-[2-(5-Cyclopentyl-2-methylpiperidin-1-yl)-2-oxoacetamido]pyridine-3-carboxamide], the IC50 is above 500 nM in assay [1]; 50 to 500 nM in assay [2]; above 1000 nM in assay [3]; above 10000 nM in assay [4] (setting [12]); above 500 nM in assay [5] (setting [11]); above 1000 nM in assay [6] (setting [8]). In assay [6], the “MTAP intact/deleted ratio” value is “C (an IC50 ratio of less than 3 fold)”.
In the case of `C[C@@H]1CC[C@@H](c2ccccc2)N(C(=O)C(=O)Nc2cnc(O)c(C(N)=O)c2)C1` (racemic) [Compound 494, rac-2-hydroxy-5-(2-((2R,5S)-5-methyl-2-phenylpiperidin-1-yl)-2-oxoacetamido)nicotinamide], the IC50 in assay [1] is above 500 nM; in assay [2], 50 to 500 nM; in assay [3] it was above 1000 nM; in assay [4] (setting [12]), above 10000 nM; in assay [5] (read-out: No Cofactor/rel IC50), 50 to 500 nM; in assay [6] (setting [10]) it was above 1000 nM. Further, in assay [6], the MTAP intact/deleted ratio result is given as “C (an IC50 ratio of less than 3 fold)”.
`CCc1cc(NC(=O)C(=O)N2C[C@@H](C)CC[C@@H]2c2ccc3sc(C)nc3c2)cnc1N` (single isomer, unassigned) [Compound 800]: the IC50 in assay [1] is 50 to 500 nM; in assay [2], below 50 nM; in assay [3], 100 to 1000 nM; in assay [4] (setting [9]) it was below 1000 nM; in assay [5] (read-out: No Cofactor/rel IC50), below 50 nM; in assay [6] (setting [10]), below 100 nM. The MTAP intact/deleted ratio entry in assay [6] was “A (an IC50 ratio greater than or equal to 10 fold)”.
